Values of other authors in PMC4891577, “Exploiting Phenylpropanoid Derivatives to Enhance the Nutraceutical Values of Cereals and Legumes” (Frontiers in Plant Science, 2016).

system: lipogenic proteins; set-up: method as in Chavez-Santoscoy et al., 2014; Ramírez-Jiménez et al., 2015; conditions: black bean flavonoid; ref Chavez-Santoscoy et al., 2014; Ramírez-Jiménez et al., 2015

SMILES | effect on expression of lipogenic proteins
O=c1c(O[C@@H]2O[C@H](CO)[C@@H](O)[C@H](O)[C@H]2O)c(-c2ccc(O)c(O)c2)oc2cc(O)cc(O)c12 [quercetin 3-glucoside] | strong effects on down-regulation of expression of lipogenic proteins

system: Caco-2 cells; set-up: method as in Hart et al., 2015; conditions: polyphenols of black bean seed coats; ref Hart et al., 2015

SMILES | effect on Fe uptake
O=c1c(O[C@@H]2O[C@H](CO)[C@@H](O)[C@H](O)[C@H]2O)c(-c2ccc(O)cc2)oc2cc(O)cc(O)c12 [kaempferol 3-glucoside] | promote Fe uptake
O.Oc1cc(O)c2c(c1)O[C@H](c1ccc(O)c(O)c1)[C@@H](O)C2 [Catechin] | promote Fe uptake
O=C(O)c1ccc(O)c(O)c1 [3,4-dihydroxybenzoic acid] | promote Fe uptake
O=c1c(O)c(-c2cc(O)c(O)c(O)c2)oc2cc(O)cc(O)c12 [myricetin] | inhibit Fe uptake
O=c1c(O)c(-c2ccc(O)cc2)oc2cc(O)cc(O)c12 [kaempferol] | promote Fe uptake
O=c1c(O[C@@H]2O[C@H](CO)[C@@H](O)[C@H](O)[C@H]2O)c(-c2ccc(O)c(O)c2)oc2cc(O)cc(O)c12 [quercetin 3-glucoside] | inhibit Fe uptake
O=c1c(O)c(-c2ccc(O)c(O)c2)oc2cc(O)cc(O)c12 [quercetin] | inhibit Fe uptake
O=c1c(OC2O[C@H](CO)[C@@H](O)[C@H](O)[C@H]2O)c(-c2cc(O)c(O)c(O)c2)oc2cc(O)cc(O)c12 (stereo partly drawn) [myricetin 3-glucoside] | inhibit Fe uptake
